# Test results published in patent US20250326718A1, “4-PHENYL-2-PYRROLIDINONES AND METHODS OF USING THEREOF” (North Carolina State University, priority 2022, published 2025).
# Like-named read-outs stand apart in the source and are kept apart here.
# What was measured:
# Assay type in all cases: cell-based
# MRSA (ATCC 33591) = experiment: Broth microdilution MIC, MRSA ATCC 33591; conditions: Staphylococcus aureus; Tables 2-4; standardized conditions
# Experimental: General information—Biological Assays. Methicillin-resistant and methicillin sensitive Staphylococcus aureus (MRSA and MSSA respectively) strains were obtained from the Laboratory of Professor Christian Melander (NCSU) (ATCC BAA 44 and 33591) and Dr. Jessica Gilbertie (ATCC 25923). Bacteria were kept in frozen stocks on glycerol at −80° C. until use. Bacteria was streaked onto tryptic-soy agar for colony isolation. Mueller-Hinton broth (MHB, 211443-BD), tryptic soy broth (TSB, Remel: R455052) and D-glucose (CAS: 492-62-6) were purchased from Fisher Scientific. Tryptic soy agar (TSA, cat. #22091) and Linezolid (cat. #P70014) were purchased from Sigma-Aldrich. Bacteria for biofilm inhibition were cultured overnight in TSB-G (tryptic soy broth with 0.5% glucose supplement) in 96 well plates. All assays were run in duplicate and repeated at least two separate times for MIC assays and at least three separate times for biofilm inhibition. All compounds were dissolved in molecular biology grade DMSO as 10 mM stock solutions. Optical densities were measured using a Thermo Scientific Genesys 20 spectrophotometer. Data for biofilm inhibition were collected using a BioTek ELx808 Microplate Reader. All graphs were generated and analyzed using GraphPad Prism 7.
# Broth microdilution method for determination of minimum inhibitory concentrations. As prescribed by the Clinical and Laboratory Standards Institute (CLSI) M07-A8, Vol. 29 (2) MSSA (ATCC 25923) and MRSA (ATCC BAA 44 and 33591) was grown in MHB for 6-8 h; this culture was used to inoculate fresh MHB (5×10^5 CFU/mL). The resulting bacterial suspension was aliquoted (1 mL) into 1.5 mL Eppendorf tubes and compound was added from a 10 mM DMSO stock to achieve the desired initial starting concentration (typically 128 μg/mL). Linezolid (from a 10 mM DMSO stock) was used as a positive control. Inoculated media not treated with compound served as the negative control. The MIC was determined by microbroth dilution following the CLSI guidelines. The MIC was defined as the lowest concentration of antibiotic with no visible growth. The plate was sealed and incubated under stationary conditions at 37° C.
# The antimicrobial activity of Compounds 1-15 was assessed initially against MSSA (ATCC 25923) and MRSA (ATCC 33591) strains. It was observed that almost all these compounds precipitated in aqueous solution at concentrations equal or higher than 8-16 μg/mL. In order to obtain preliminary results on the antimicrobial activity for these compounds, the standard conditions of the antimicrobial assays used where modified to favor the water solubility of these compounds.
# MSSA (ATCC 25923) = experiment: Broth microdilution MIC, MSSA ATCC 25923; conditions: Staphylococcus aureus
# S. aureus 29213 = experiment: Broth microdilution MIC, S. aureus 29213; conditions: Staphylococcus aureus
# [1] = Tables 2-4, standardized conditions, read-out: MIC (S. aureus 25923)
# [2] = Tables 3-4, standardized conditions, read-out: MIC (S. aureus 29213)
# [3] = Table 2, standardized conditions, read-out: MIC (S. aureus 25913)
Compound,MIC (MRSA (ATCC 33591)),MIC (MSSA (ATCC 25923); [1]),MIC (S. aureus 29213; [2]),MIC (S. aureus 29213; [3]),"MIC (MSSA (ATCC 25923); antibiotic alone, read-out: MIC value against MSSA ATCC 25923)"
CCC1C(c2ccc(C(F)(F)F)cc2)=C(O)C(=O)N1CCNCCNCCNCCN (centres unmarked) [Compound 34],> 128 µg/mL,> 128 µg/mL,> 128 µg/mL,,
"CCC1C(c2ccc(C(F)(F)F)cc2)=C(O)C(=O)N1CCCCCCN1C(=O)C(O)=C(c2ccc(C(F)(F)F)cc2)C1CC (centres unmarked) [Compound 27, 1,1′-(Hexane-1,6-diyl)bis(5-ethyl-3-hydroxy-4-(4-(trifluoromethyl)phenyl)-1,5-dihydro-2H-pyrrol-2-one)]",> 128 µg/mL,> 128 µg/mL,,> 128 µg/mL,
"O=C(O)c1cn(C2CC2)c2cc(N3CCNCC3)c(F)cc2c1=O [Ciprofloxacin, ciprofloxacin, reference compound]",,,,,0.5 µg/mL
"CCC1C(c2ccc(C(F)(F)F)cc2)=C(O)C(=O)N1CCCCCCN (centres unmarked) [Compound 18, 1-(6-Aminohexyl)-5-ethyl-3-hydroxy-4-(4-(trifluoromethyl)phenyl)-1,5-dihydro-2H-pyrrol-2-one]",> 128 µg/mL,> 128 µg/mL,,> 128 µg/mL,
"CCC1C(c2ccc(C(F)(F)F)cc2)=C(O)C(=O)N1CCCCN (centres unmarked) [Compound 17, 1-(4-Aminobutyl)-5-ethyl-3-hydroxy-4-(4-(trifluoromethyl)phenyl)-1,5-dihydro-2H-pyrrol-2-one]",> 128 µg/mL,> 128 µg/mL,,> 128 µg/mL,
"CCC1C(c2ccc(C(F)(F)F)cc2)=C(O)C(=O)N1c1ccc(N)cc1 (centres unmarked) [Compound 20, 1-(4-Aminophenyl)-5-ethyl-3-hydroxy-4-(4-(trifluoromethyl)phenyl)-1,5-dihydro-2H-pyrrol-2-one]",64 µg/mL,> 128 µg/mL,,> 128 µg/mL,
"CCC1C(c2ccc(C(F)(F)F)cc2)=C(O)C(=O)N1CCCCNCCCN1C(=O)C(O)=C(c2ccc(C(F)(F)F)cc2)C1CC (centres unmarked) [Compound 32, 5-Ethyl-1-(3-((4-(2-ethyl-4-hydroxy-5-oxo-3-(4-(trifluoromethyl)phenyl)-2,5-dihydro-1H-pyrrol-1-yl)butyl)amino)propyl)-3-hydroxy-4-(4-(trifluoromethyl)phenyl)-1,5-dihydro-2H-pyrrol-2-one]",64 µg/mL,8 µg/mL,,64 µg/mL,
"CCC1C(c2ccc(C(F)(F)F)cc2)=C(O)C(=O)N1CCN (centres unmarked) [Compound 16, 1-(2-Aminoethyl)-5-ethyl-3-hydroxy-4-(4-(trifluoromethyl)phenyl)-1,5-dihydro-2H-pyrrol-2-one]",> 128 µg/mL,128 µg/mL,,128 µg/mL,
"CCC1C(c2ccc(C(F)(F)F)cc2)=C(O)C(=O)N1CCCNCCCCNCCCN1C(=O)C(O)=C(c2ccc(C(F)(F)F)cc2)C1CC (centres unmarked) [Compound 33, 1,1′-((Butane-1,4-diylbis(azanediyl))bis(propane-3,1-diyl))bis(5-ethyl-3-hydroxy-4-(4-(trifluoromethyl)phenyl)-1,5-dihydro-2H-pyrrol-2-one)]",,4 µg/mL,,4 µg/mL,

# Continued, values first:
MIC (MRSA (ATCC 33591)),MIC (MSSA (ATCC 25923); [1]),MIC (S. aureus 29213; [2]),MIC (S. aureus 29213; [3]),"MIC (MSSA (ATCC 25923); antibiotic alone, read-out: MIC value against MSSA ATCC 25923)",Compound
2 µg/mL,2 µg/mL,2 µg/mL,,,"O=C1C(O)=C(c2ccc(C(F)(F)F)cc2)C([C@H](O)c2ccccc2)N1c1ccc(C(F)(F)F)cc1 (stereo partly drawn) [Compound 56, 3-Hydroxy-5-((R)-hydroxy(phenyl)methyl)-1,4-bis(4-(trifluoromethyl)phenyl)-1,5-dihydro-2H-pyrrol-2-one]"
128 µg/mL,16 µg/mL,128 µg/mL,,,"O=C1C(O)=C(c2ccc(C(F)(F)F)cc2)C([C@H](O)c2ccccc2)N1c1ccc(F)cc1 (stereo partly drawn) [Compound 53, 1-(4-Fluorophenyl)-3-hydroxy-5-((R)-hydroxy(phenyl)methyl)-4-(4-(trifluoromethyl)phenyl)-1,5-dihydro-2H-pyrrol-2-one]"
8 µg/mL,,8 µg/mL,,,"O=C1C(O)=C(c2ccc(C(F)(F)F)cc2)C([C@H](O)c2ccccc2)N1c1ccc(Br)cc1 (stereo partly drawn) [Compound 47, 1-(4-Bromophenyl)-3-hydroxy-5-((R)-hydroxy(phenyl)methyl)-4-(4-(trifluoromethyl)phenyl)-1,5-dihydro-2H-pyrrol-2-one]"
> 128 µg/mL,> 128 µg/mL,> 128 µg/mL,,,"CCC1C(c2ccc(C(F)(F)F)cc2)=C(O)C(=O)N1c1ccc(Br)cc1 (centres unmarked) [Compound 42, 1-(4-Bromophenyl)-5-ethyl-3-hydroxy-4-(4-(trifluoromethyl)phenyl)-1,5-dihydro-2H-pyrrol-2-one]"
> 128 µg/mL,> 128 µg/mL,> 128 µg/mL,,,"CCC1C(c2ccc(C(F)(F)F)cc2)=C(O)C(=O)N1CCN(CCN1C(=O)C(O)=C(c2ccc(C(F)(F)F)cc2)C1CC)CCN1C(=O)C(O)=C(c2ccc(C(F)(F)F)cc2)C1CC (centres unmarked) [Compound 40, 1,1′,1″-(nitrilotris(ethane-2,1-diyl))tris(5-ethyl-3-hydroxy-4-(4-(trifluoromethyl)phenyl)-1,5-dihydro-2H-pyrrol-2-one)]"
32 µg/mL,> 128 µg/mL,> 128 µg/mL,,,"CC1C(c2ccc(C(F)(F)F)cc2)=C(O)C(=O)N1c1ccc(Br)cc1 (centres unmarked) [Compound 41, 1-(4-Bromophenyl)-3-hydroxy-5-methyl-4-(4-(trifluoromethyl)phenyl)-1,5-dihydro-2H-pyrrol-2-one]"
> 128 µg/mL,> 128 µg/mL,128 µg/mL,,,"O=C1C(O)=C(c2ccc(C(F)(F)F)cc2)C(c2cccs2)N1c1ccc(Br)cc1 (centres unmarked) [Compound 45, 1-(4-Bromophenyl)-3-hydroxy-5-(thiophen-2-yl)-4-(4-(trifluoromethyl)phenyl)-1,5-dihydro-2H-pyrrol-2-one]"
4 to 8 µg/mL,4 µg/mL,4 µg/mL,,,"O=C1C(O)=C(c2ccc(C(F)(F)F)cc2)C([C@H](O)c2ccccc2)N1c1ccc(Cl)cc1 (stereo partly drawn) [Compound 54, 1-(4-Chlorophenyl)-3-hydroxy-5-((R)-hydroxy(phenyl)methyl)-4-(4-(trifluoromethyl)phenyl)-1,5-dihydro-2H-pyrrol-2-one]"
64 µg/mL,> 128 µg/mL,> 128 µg/mL,,,"O=C1C(O)=C(c2ccc(C(F)(F)F)cc2)C(C2CC2)N1c1ccc(Br)cc1 (centres unmarked) [Compound 43, 1-(4-Bromophenyl)-5-cyclopropyl-3-hydroxy-4-(4-(trifluoromethyl)phenyl)-1,5-dihydro-2H-pyrrol-2-one]"
32 µg/mL,32 to 64 µg/mL,16 µg/mL,,,"O=C1C(O)=C(c2ccc(C(F)(F)F)cc2)C([C@@H](O)c2ccccc2)N1c1ccc(Br)cc1 (stereo partly drawn) [Compound 48, 1-(4-Bromophenyl)-3-hydroxy-5-((S)-hydroxy(phenyl)methyl)-4-(4-(trifluoromethyl)phenyl)-1,5-dihydro-2H-pyrrol-2-one]"
64 µg/mL,64 µg/mL,128 µg/mL,,,"O=C1C(O)=C(c2ccc(C(F)(F)F)cc2)C(CCl)N1c1ccc(Br)cc1 (centres unmarked) [Compound 44, 1-(4-Bromophenyl)-5-(chloromethyl)-3-hydroxy-4-(4-(trifluoromethyl)phenyl)-1,5-dihydro-2H-pyrrol-2-one]"
> 128 µg/mL,> 128 µg/mL,> 128 µg/mL,,,"O=C1C(O)=C(c2ccc(C(F)(F)F)cc2)C(C(O)CO)N1c1ccc(Br)cc1 (centres unmarked) [Compound 49, 1-(4-Bromophenyl)-5-(1,2-dihydroxyethyl)-3-hydroxy-4-(4-(trifluoromethyl)phenyl)-1,5-dihydro-2H-pyrrol-2-one]"
64 µg/mL,64 µg/mL,64 µg/mL,,,"CCC1C(c2ccc(C(F)(F)F)cc2)=C(O)C(=O)N1CCN(CCN)CCN1C(=O)C(O)=C(c2ccc(C(F)(F)F)cc2)C1CC (centres unmarked) [Compound 39, 1,1′-(((2-aminoethyl)azanediyl)bis(ethane-2,1-diyl))bis(5-ethyl-3-hydroxy-4-(4-(trifluoromethyl)phenyl)-1,5-dihydro-2H-pyrrol-2-one)]"
